Experimental data published in patent US6436630B1, “Method for testing the toxicity of chemical substances using gastropods” (priority 1998, dated 2002).
Where two headings read alike, the source gives them in different places.

Legend:
[1] = test system: foot mucosa of slugs of species Arion; format: in vivo; conditions: Arion; for % MP, mucus production: 1% w/v (HPβCD 5% w/v) in PBS, 15 min; for ALP released into PBS / LDH released into PBS / Protein released into PBS: 1% w/v (HPβCD 5% w/v), total mean of 7 samples/day per slug
[2] = test system: foot mucosa of slugs of species Limax; format: in vivo; conditions: Limax; for % MP, mucus production as % of the body weight at the start of the day before the treatment: 1% w/v (HPβCD 5% w/v) in PBS, 15 min; for ALP released into PBS / LDH released into PBS / Protein released into PBS: 1% w/v (HPβCD 5% w/v), total mean of 7 samples/day per slug
Method: Slugs of the species Limax are terrestial slugs have lungs and also a small internal shell. As test substances hydroxypropyl-β-cyclodextrin (HPβCD), sodium tauro-24,25-dihdrofiisidate (STDHF) and sodium deoxycholate were selected. Benzalkonium chloride (1% w/v), HPβCD (5% w/v), STDHF (1% w/v) and SDC (1% w/v) were prepared in phosphate buffered saline (PBS, pH 7.4).
The enzymes lactate dehydrogenase (LDH) and alkaline phosphatase (ALP) and total protein released into the PBS were determined. The change in body weight and mucus production caused by the treatment were examined.

CC(=O)OC1CC2(C)C(CC(O)C3C4(C)CCC(O)C(C)C4CCC32C)C1=C(CCCC(C)C)C(=O)NCCS(=O)(=O)O (stereo not drawn) [STDHF, sodium tauro-24,25-dihdrofiisidate]
ranking order of increasing toxicity [1]: PBS, 5% HPβCD<1% STDHF<1% SDC and 1% BAC | LDH release (in words) ([1]; 1% w/v): slightly increased LDH release | body weight change (in words) ([1]; 1% w/v): decrease in body weight | mucus production (in words) ([1]; HPβCD 5% w/v, STDHF 1% w/v): increased mucus production | % MP, mucus production ([1]; day 1): 7.7% | ALP released into PBS ([1]; day 1): 21.77 U/L | LDH released into PBS ([1]; day 1): 18.22 U/L | Protein released into PBS ([1]; day 1): 15.68 μg/30μL | % MP, mucus production ([1]; day 2): 3.85% | ALP released into PBS ([1]; day 2): 9.39 U/L | LDH released into PBS ([1]; day 2): 14.44 U/L | Protein released into PBS ([1]; day 2): 2.84 μg/30μL | % MP, mucus production ([1]; day 3): 3.45% | ALP released into PBS ([1]; day 3): 8.66 U/L | LDH released into PBS ([1]; day 3): 24.04 U/L | Protein released into PBS ([1]; day 3): 2.79 μg/30μL | % MP, mucus production ([1]; day 4): 4.81% | ALP released into PBS ([1]; day 4): 15.14 U/L | LDH released into PBS ([1]; day 4): 20.53 U/L | Protein released into PBS ([1]; day 4): 4.55 μg/30μL | % MP, mucus production ([1]; day 5): 4.41% | ALP released into PBS ([1]; day 5): 4.81 U/L | LDH released into PBS ([1]; day 5): 25.65 U/L | Protein released into PBS ([1]; day 5): 4.18 μg/30μL | ranking order of increasing toxicity [2]: PBS, 5% HPβCD<1% STDHF<1% SDC and 1% BAC | LDH release (in words) ([2]; 1% w/v): slightly increased LDH release | body weight change (in words) ([2]; 1% w/v): decrease in body weight | mucus production (in words) ([2]; HPβCD 5% w/v, STDHF 1% w/v): increased mucus production | % MP, mucus production as % of the body weight at the start of the day before the treatment ([2]; day 1): 6.85% | ALP released into PBS ([2]; day 1): 3.81 U/L | LDH released into PBS ([2]; day 1): 1.65 U/L | Protein released into PBS ([2]; day 1): 14.48 μg/30μL | % MP, mucus production as % of the body weight at the start of the day before the treatment ([2]; day 2): 6.16% | ALP released into PBS ([2]; day 2): 6.49 U/L | LDH released into PBS ([2]; day 2): 4.29 U/L | Protein released into PBS ([2]; day 2): 11.67 μg/30μL | % MP, mucus production as % of the body weight at the start of the day before the treatment ([2]; day 3): 7.52% | ALP released into PBS ([2]; day 3): 5.09 U/L | LDH released into PBS ([2]; day 3): 6.02 U/L | Protein released into PBS ([2]; day 3): 6.27 μg/30μL | % MP, mucus production as % of the body weight at the start of the day before the treatment ([2]; day 4): 6.75% | ALP released into PBS ([2]; day 4): 3.28 U/L | LDH released into PBS ([2]; day 4): 18.23 U/L | Protein released into PBS ([2]; day 4): 10.4 μg/30μL | % MP, mucus production as % of the body weight at the start of the day before the treatment ([2]; day 5): 6.6% | ALP released into PBS ([2]; day 5): 3.62 U/L | LDH released into PBS ([2]; day 5): 10.63 U/L | Protein released into PBS ([2]; day 5): 10.36 μg/30μL
